Results published in publication PMC2906706 (Cancer research, 2010).

Columns and labels:
OCT1 = target: T1, OCT1 (Homo sapiens, UniProt O15245); experiment: inhibition of ASP+ uptake in HEK293 cells over-expressing OCT1; format: cell-based
T1 sequence (O15245 1-554): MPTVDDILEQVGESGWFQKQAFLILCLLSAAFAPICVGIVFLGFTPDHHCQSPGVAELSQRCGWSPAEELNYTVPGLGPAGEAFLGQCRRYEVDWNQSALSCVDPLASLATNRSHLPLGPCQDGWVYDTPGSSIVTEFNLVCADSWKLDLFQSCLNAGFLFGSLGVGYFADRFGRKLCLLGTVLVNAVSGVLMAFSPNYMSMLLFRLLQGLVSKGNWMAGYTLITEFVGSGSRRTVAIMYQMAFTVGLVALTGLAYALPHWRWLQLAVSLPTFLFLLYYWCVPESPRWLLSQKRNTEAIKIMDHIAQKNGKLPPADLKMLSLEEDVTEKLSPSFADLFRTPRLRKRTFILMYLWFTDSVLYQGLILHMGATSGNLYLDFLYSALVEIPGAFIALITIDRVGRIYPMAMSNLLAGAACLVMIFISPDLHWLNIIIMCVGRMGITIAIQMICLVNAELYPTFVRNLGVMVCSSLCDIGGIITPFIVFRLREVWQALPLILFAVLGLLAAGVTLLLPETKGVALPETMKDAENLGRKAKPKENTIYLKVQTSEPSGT

OCT2 = OCT2 (Homo sapiens, UniProt O15244); experiment: inhibition of ASP+ uptake in HEK293 cells over-expressing OCT2; format: cell-based
Chain of OCT2 (O15244 whole entry): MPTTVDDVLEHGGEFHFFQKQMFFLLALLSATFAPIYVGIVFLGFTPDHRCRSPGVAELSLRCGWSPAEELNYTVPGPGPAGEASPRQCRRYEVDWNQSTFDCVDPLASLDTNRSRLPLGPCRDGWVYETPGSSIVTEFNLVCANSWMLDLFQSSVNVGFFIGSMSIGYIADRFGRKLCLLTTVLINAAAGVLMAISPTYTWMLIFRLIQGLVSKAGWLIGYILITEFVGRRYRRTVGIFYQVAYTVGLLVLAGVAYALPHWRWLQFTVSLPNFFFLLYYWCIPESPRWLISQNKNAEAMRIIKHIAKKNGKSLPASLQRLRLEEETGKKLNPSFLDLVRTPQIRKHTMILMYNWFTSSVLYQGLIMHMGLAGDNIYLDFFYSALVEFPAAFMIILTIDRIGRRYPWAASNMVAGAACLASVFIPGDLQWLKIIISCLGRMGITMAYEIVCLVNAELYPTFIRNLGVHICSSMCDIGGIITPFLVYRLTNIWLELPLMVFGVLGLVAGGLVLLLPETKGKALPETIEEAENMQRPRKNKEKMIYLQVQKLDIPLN

CN1CCN(CCOc2cc(OC3CCOCC3)c3c(Nc4c(Cl)ccc5c4OCO5)ncnc3c2)CC1 [saracatinib, N-(5-chloro-1,3-benzodioxol-4-yl)-7-[2-(4-methylpiperazin-1-yl)ethoxy]-5-(tetrahydro-2H-pyran-4-yloxy)quinazolin-4-amine]
IC50 (OCT1): 27.1 µM
IC50 (OCT2): 0.46 µM
